Measurements published in patent US20170044230A1 (USTAV ORGANICKE CHEMIE A BIOCHEMIE AV CR, V.V.I., priority 2014, published 2017).
Non-standard residues stand in square brackets, D forms with d. Residues, ends and D or L forms follow the SMILES beside them. *: point of attachment. 1Nal = N[C@@H](Cc1cccc2ccccc12)C(=O)O; Myristoyl = CCCCCCCCCCCCCC(=O)*; Cha = N[C@@H](CC1CCCCC1)C(=O)O; Decanoyl = CCCCCCCCCC(=O)*; Dap = NC[C@H](N)C(=O)O; Sar = CNCC(=O)O

What was measured:
[1] = Pharmacokinetics in vivo after SC administration to mice; conditions: SC 5 mg/kg
Method: Mice were housed at a temperature 22±2° C. under a daily cycle of 12/12 h light/dark (light from 6:00) with free access to water and a standard chow diet St-1 (Mlýn Kocanda, Praha, Czech Republic).
4, 6, 14 and 18 at a dose of 5 mg/kg of body weight (0.2 ml/mouse, n=4). Blood was collected from tails before injection and 0.5, 1, 2, 4, 8, 16 and 24 h after injection. Plasma was separated and stored at −20° C.

human GHS-R1a receptor = target: T1, human GHS-R1a receptor (Homo sapiens, UniProt Q92847); assay: Competitive binding studies (displacement of 125I-ghrelin); conditions: for % of ghrelin binding: relative to ghrelin = 100; for affinity for GHS-R1a compared with ghrelin: in words
T1 construct: purchased Multispan, Hayward, Calif., USA; host or cells: HEK293T cells, isolated plasma membranes
Method: Isolated plasma membranes from the HEK293T cells with transfected human GHS-R1a receptor (Multispan, Hayward, Calif., USA) were used. […] Experiments were carried out in duplicates at least three times. Competitive binding curves were plotted using GraphPad Prism Software (San Diego, Calif., USA) while comparing the best fit for single binding sites models.

fed C57BL/6 male mice = assay: Effect of SC administered ghrelin analogs on food intake; format: in vivo; conditions: for maximal effect at 5 mg/kg on food intake: SC 5 mg/kg, evaluated 480 min after administration; for ED50 (250 min after injection), effect on food intake: SC, fed mice
Method: All of the experiments followed the ethical guidelines for animal experiments and Czech Republic law 246/1992 and were approved by the committee for experiments with laboratory animals of the Academy of Sciences of the Czech Republic. Male C57BL/6 mice (Charles River, Germany) were housed at a temperature 22±2° C. under a daily cycle of 12/12 h light/dark (light from 6:00) with free access to water and a standard chow diet St-1 which contained […] of calories from protein, fat and carbohydrate, respectively, and its energy content was 3.4 kcal/g (Mlýn Kocanda, Praha, Czech Republic). Mice were placed into separate cages for one week before experiment, they had free access to water and food pellets. Closely before the experiment, the food pellets were removed from the cages. […] 15 min after the injection, mice were given preweighed food pellets. Food intake was monitored for 8-10 hours at 30-min intervals. Mice had free access to water during the experiment. Experiments were performed at least twice for each tested compound, each experimental group had at least 5 mice.
Data from food intake experiments were analyzed by one-way ANOVA followed by Dunnett's post-hoc test using GraphPad Prism Software (San Diego, Calif., USA), P<0.05 was considered statistically significant. ED50 values were calculated using GraphPad Prism Software as the dose of the tested compound required to elicit half-maximal effect at 250 min after administration of the corresponding compound.
Food intake was monitored for […] after administration of the compounds. ED50 values were determined 250 min after administration. Maximal effect on food intake was evaluated […] after administration of the compounds at a dose of 5 mg/kg of body weight. NT—not tested.

[2] = test system: rat model of subtotal nephrectomy; assay: Rat model of renal cachexia (subtotal nephrectomy, SNx); format: in vivo; conditions: SNx rats, 15-day SC 5 mg/kg
Method: Male F344 rats (Harlan, Italy) were housed at a temperature of 22±2° C. under a daily cycle of 12/12 h light/dark (light from 6:00) with free access to water and a standard chow diet St-1 (Mlýn Kocanda, Praha, Czech Republic).
To induce renal dysfunction, 5/6 nephrectomy was performed to anesthetized 8-week-old rats (SNx group, n=14); the control group was sham-operated (Sham group, n=6). Starting from the following day, the rats were SC injected with saline or ghrelin analog no. 2 (5 mg/kg of body weight, dissolved in saline) for 15 days. Food intake and body weight of the rats was monitored every day. At the end of the experiment, blood was collected for determination of pro-inflammatory cytokines using the Milliplex MAP Rat Cytokine/Chemokine Magnetic Bead Panel (Merck-Millipore, St. Charles, Mo., USA).

T1 sequence (Q92847 whole entry): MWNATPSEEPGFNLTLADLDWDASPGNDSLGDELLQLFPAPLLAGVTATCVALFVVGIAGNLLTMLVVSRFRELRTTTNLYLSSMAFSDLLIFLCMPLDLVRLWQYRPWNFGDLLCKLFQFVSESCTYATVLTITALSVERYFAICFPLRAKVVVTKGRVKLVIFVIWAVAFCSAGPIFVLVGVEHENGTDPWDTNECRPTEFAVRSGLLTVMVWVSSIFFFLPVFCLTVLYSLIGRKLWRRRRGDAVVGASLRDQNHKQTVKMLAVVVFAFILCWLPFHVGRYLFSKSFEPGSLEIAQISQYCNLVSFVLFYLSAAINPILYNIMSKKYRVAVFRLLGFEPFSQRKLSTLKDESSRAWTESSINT

## CCCCCCCCCCCCCC(=O)NC[C@H](NC(=O)[C@H](CO)NC(=O)CNC)C(=O)N[C@@H](Cc1ccccc1)C(=O)N[C@@H](CC(C)C)C(=O)N[C@@H](CO)C(=O)N1CCC[C@H]1C(=O)N[C@@H](CCC(=O)O)C(=O)N[C@@H](Cc1c[nH]cn1)C(=O)N[C@@H](CCC(N)=O)C(=O)N[C@@H](CCCCN)C(=O)N[C@@H](C)C(=O)N[C@@H](CCC(N)=O)C(=O)N[C@@H](CCC(N)=O)C(=O)N[C@@H](CCCNC(=N)N)C(=O)N[C@@H](CCCCN)C(=O)N[C@@H](CCC(=O)O)C(=O)N[C@@H](CO)C(=O)O [Analog 18] (H-[Sar]S[Dap](Myristoyl)FLSPEHQKAQQRKES-OH)
[1]
  stability in vivo compared with ghrelin or Dpr^3ghrelin: significantly more stable than ghrelin or Dpr^3ghrelin

## CCCCCCCCCCCCCC(=O)NC[C@H](NC(=O)[C@H](CO)NC(=O)CNC)C(=O)N[C@@H](CC1CCCCC1)C(=O)N[C@@H](CC(C)C)C(=O)N[C@@H](CO)C(=O)N1CCC[C@H]1C(=O)N[C@@H](CCC(=O)O)C(=O)N[C@@H](Cc1c[nH]cn1)C(=O)N[C@@H](CCC(N)=O)C(=O)N[C@@H](CCCCN)C(=O)N[C@@H](C)C(=O)N[C@@H](CCC(N)=O)C(=O)N[C@@H](CCC(N)=O)C(=O)N[C@@H](CCCNC(=N)N)C(=O)N[C@@H](CCCCN)C(=O)N[C@@H](CCC(=O)O)C(=O)N[C@@H](CO)C(=O)N[C@@H](CCCCN)C(=O)N[C@@H](CCCCN)C(=O)N1CCC[C@H]1C(=O)N1CCC[C@H]1C(=O)N[C@@H](C)C(=O)N[C@@H](CCCCN)C(=O)N[C@@H](CC(C)C)C(=O)N[C@@H](CCC(N)=O)C(=O)N1CCC[C@H]1C(=O)N[C@@H](CCCNC(=N)N)C(=O)O [Analog 6] (H-[Sar]S[Dap](Myristoyl)[Cha]LSPEHQKAQQRKESKKPPAKLQPR-OH; N-terminus and C-terminus assumed)
Human GHS-R1a receptor
  % of ghrelin binding: 18%
Fed C57BL/6 male mice
  maximal effect at 5 mg/kg on food intake: 276.2 % of Dpr^3ghr
  ED50 (250 min after injection), effect on food intake: 3.05 mg/kg
[1]
  stability in vivo compared with ghrelin or Dpr^3ghrelin: significantly more stable than ghrelin or Dpr^3ghrelin
[1]; male, C57BL/6, mouse, plasma
  half-life: 7 h

## CCCCCCCCCC(=O)NC[C@H](NC(=O)[C@H](CO)NC(=O)CNC)C(=O)N[C@@H](Cc1ccccc1)C(=O)N[C@@H](CC(C)C)C(=O)N[C@@H](CO)C(=O)N1CCC[C@H]1C(=O)N[C@@H](CCC(=O)O)C(=O)N[C@@H](Cc1c[nH]cn1)C(=O)N[C@@H](CCC(N)=O)C(=O)N[C@@H](CCCCN)C(=O)N[C@@H](C)C(=O)N[C@@H](CCC(N)=O)C(=O)N[C@@H](CCC(N)=O)C(=O)N[C@@H](CCCNC(=N)N)C(=O)N[C@@H](CCCCN)C(=O)N[C@@H](CCC(=O)O)C(=O)N[C@@H](CO)C(=O)N[C@@H](CCCCN)C(=O)N[C@@H](CCCCN)C(=O)N1CCC[C@H]1C(=O)N1CCC[C@H]1C(=O)N[C@@H](C)C(=O)N[C@@H](CCCCN)C(=O)N[C@@H](CC(C)C)C(=O)N[C@@H](CCC(N)=O)C(=O)N1CCC[C@H]1C(=O)N[C@@H](CCCNC(=N)N)C(=O)O [Analog 1]
Human GHS-R1a receptor
  affinity for GHS-R1a compared with ghrelin: higher affinities for GHS-R1a than ghrelin
  % of ghrelin binding: 183%
Fed C57BL/6 male mice
  maximal effect at 5 mg/kg on food intake: 218.8 % of Dpr^3ghr
  ED50 (250 min after injection), effect on food intake: 3.90 mg/kg

## CCCCCCCCCC(=O)NC[C@H](NC(=O)[C@H](CO)NC(=O)CNC)C(=O)N[C@@H](CC1CCCCC1)C(=O)N[C@@H](CC(C)C)C(=O)N[C@@H](CO)C(=O)N1CCC[C@H]1C(=O)N[C@@H](CCC(=O)O)C(=O)N[C@@H](Cc1c[nH]cn1)C(=O)N[C@@H](CCC(N)=O)C(=O)N[C@@H](CCCCN)C(=O)N[C@@H](C)C(=O)N[C@@H](CCC(N)=O)C(=O)N[C@@H](CCC(N)=O)C(=O)N[C@@H](CCCNC(=N)N)C(=O)N[C@@H](CCCCN)C(=O)N[C@@H](CCC(=O)O)C(=O)N[C@@H](CO)C(=O)N[C@@H](CCCCN)C(=O)N[C@@H](CCCCN)C(=O)N1CCC[C@H]1C(=O)N1CCC[C@H]1C(=O)N[C@@H](C)C(=O)N[C@@H](CCCCN)C(=O)N[C@@H](CC(C)C)C(=O)N[C@@H](CCC(N)=O)C(=O)N1CCC[C@H]1C(=O)N[C@@H](CCCNC(=N)N)C(=O)O [Analog 5] (H-[Sar]S[Dap](Decanoyl)[Cha]LSPEHQKAQQRKESKKPPAKLQPR-OH; N-terminus and C-terminus assumed)
Human GHS-R1a receptor
  affinity for GHS-R1a compared with ghrelin: higher affinities for GHS-R1a than ghrelin
  % of ghrelin binding: 110%
Fed C57BL/6 male mice
  maximal effect at 5 mg/kg on food intake: 204.5 % of Dpr^3ghr
  ED50 (250 min after injection), effect on food intake: 1.02 mg/kg

## CCCCCCCCCC(=O)NC[C@H](NC(=O)[C@H](CO)NC(=O)CNC)C(=O)N[C@@H](Cc1cccc2ccccc12)C(=O)N[C@@H](CC(C)C)C(=O)N[C@@H](CO)C(=O)N1CCC[C@H]1C(=O)N[C@@H](CCC(=O)O)C(=O)N[C@@H](Cc1c[nH]cn1)C(=O)N[C@@H](CCC(N)=O)C(=O)N[C@@H](CCCCN)C(=O)N[C@@H](C)C(=O)N[C@@H](CCC(N)=O)C(=O)N[C@@H](CCC(N)=O)C(=O)N[C@@H](CCCNC(=N)N)C(=O)N[C@@H](CCCCN)C(=O)N[C@@H](CCC(=O)O)C(=O)N[C@@H](CO)C(=O)N[C@@H](CCCCN)C(=O)N[C@@H](CCCCN)C(=O)N1CCC[C@H]1C(=O)N1CCC[C@H]1C(=O)N[C@@H](C)C(=O)N[C@@H](CCCCN)C(=O)N[C@@H](CC(C)C)C(=O)N[C@@H](CCC(N)=O)C(=O)N1CCC[C@H]1C(=O)N[C@@H](CCCNC(=N)N)C(=O)O [Analog 3] (H-[Sar]S[Dap](Decanoyl)[1Nal]LSPEHQKAQQRKESKKPPAKLQPR-OH; N-terminus and C-terminus assumed)
Human GHS-R1a receptor
  affinity for GHS-R1a compared with ghrelin: higher affinities for GHS-R1a than ghrelin
  % of ghrelin binding: 176%
Fed C57BL/6 male mice
  maximal effect at 5 mg/kg on food intake: 220.3 % of Dpr^3ghr
  ED50 (250 min after injection), effect on food intake: 0.64 mg/kg

## (Sar)S(Dpr-N-myr)FLSPEHQKAQQRKESKKPPAKLQPR (XSXFLSPEHQKAQQRKESKKPPAKLQPR; Sar N-terminus; myristoylated Dpr; ghrelin analog) [Analog 2]
[2]
  IL-1α in blood plasma: 392.3 ± 49.5 pg/mL
  IL-2 in blood plasma: 28.1 ± 9.3 pg/mL
  IL-6 in blood plasma: 337.3 ± 62.8 pg/mL
  IL-10 in blood plasma: 150.7 ± 6.2 pg/mL
  TNF-α in blood plasma: 32.6 ± 3.8 pg/mL
